Data as given in patent US9999620B2, “CaMKK-β as a target for treating cancer” (Duke University, priority 2010, dated 2018).

Columns and labels:
[1] = test system: LNCaP cells; assay: Boyden dual chamber migration assay; type: cell-based, human; conditions: 1 h +/-30 mM STO-609, overnight +/-10 nM R1881, 16 h migration, 5% FBS chemoattractant
Procedure: FIG. 7. CaMKKβ activity in the androgen-mediated migration and invasion of prostate cancer cells. A, LNCaP cells were plated in 96-well plates and grown for 3 d. […] On d 10, cells were lysed and the relative number of cells was measured with the fluorescent DNA binding dye FluoReporter Blue. Each sample was performed in triplicate, and results from a representative experiment are shown. […] Cells were then dissociated and reseeded into the top chamber for a Boyden migration or Matrigel extracellular matrix invasion assay. Fresh medium with the corresponding treatments was added to the top and bottom chambers while either no chemoattractant or 5% FBS (serum) was added to the bottom chamber. After 16 h, migrated cells were fixed, stained and counted in three different microscopic fields and added together. […] C top, LNCaP cells were transfected with indicated siRNAs. […] D right, LNCaP cells stably expressing either GAL4 (control) or CaMKKβ were subjected to a migration assay as described in B using +/-5% FBS as chemoattractant. The results are expressed as mean+SE (n=3). *, significant changes from LNCaP-GAL4 cells. D left, western blot confirming CaMKKβ […]expression. FIG. 11. Androgen-mediated migration occurs through a CaMKKβ-AMPK-dependent pathway. […] Results are expressed as fold induction/phosphorylation over double vehicle-treated cells+SE (n=3). *, significant changes from vehicle-treated cells. […] Results are expressed as fold induction/phosphorylation over LNCaP-GAL4 vehicle-treated cells+SE (n=3). *, significant changes from LNCaP-GAL4 vehicle-treated cells. […] The results are expressed as mean±SE (n=2). *, P<0.05 indicates significant changes from double vehicle-treated cells. ^#, P<0.05 indicates significant decreases from vehicle (no compound C)-treated cells. […] ACC is a direct target of AMPK and thus, was used as a readout of AMPK catalytic activity. […] Results are expressed as fold induction/phosphorylation over double vehicle-treated cells+SE (n=2). *, P<0.05 indicates significant changes from double vehicle-treated cells. […]

[2] = test system: LNCaP cells; assay: Cell proliferation assay (FluoReporter Blue DNA content); type: cell-based, human; conditions: +/-1 nM R1881 and +/-30 mM STO-609 on d 3, d 5, d 7, read on d 10
Procedure: FIG. 7. CaMKKβ activity in the androgen-mediated migration and invasion of prostate cancer cells. A, LNCaP cells were plated in 96-well plates and grown for 3 d. […] On d 10, cells were lysed and the relative number of cells was measured with the fluorescent DNA binding dye FluoReporter Blue. Each sample was performed in triplicate, and results from a representative experiment are shown. […] Cells were then dissociated and reseeded into the top chamber for a Boyden migration or Matrigel extracellular matrix invasion assay. Fresh medium with the corresponding treatments was added to the top and bottom chambers while either no chemoattractant or 5% FBS (serum) was added to the bottom chamber. After 16 h, migrated cells were fixed, stained and counted in three different microscopic fields and added together. […] C top, LNCaP cells were transfected with indicated siRNAs. […] D right, LNCaP cells stably expressing either GAL4 (control) or CaMKKβ were subjected to a migration assay as described in B using +/−5% FBS as chemoattractant. The results are expressed as mean+SE (n=3). *, significant changes from LNCaP-GAL4 cells. D left, western blot confirming CaMKKβ […]expression. […] Proliferation assays were performed as previously described (12) by measuring the cellular DNA content using the FluoReporter Blue Fluorometric double-stranded DNA Quantitation Kit (Invitrogen) as per the manufacturer's protocol.

In the case of `O=C(O)c1ccc2c3c1cccc3c(=O)n1c3ccccc3nc21` [STO-609], the androgen-mediated migration [1] is reported as “blocked the androgen-mediated migration” and the “effect on cell number (androgen-mediated cellular growth)” value [2] is reported as “no significant effect”.
